Counter-ions that a name gives are not always drawn.
Assays:
Type in all cases: physicochemical
[1] = Slurry study of Form A of the hemi-fumarate salt (XRPD of solids)
Procedure: XRPD patterns of samples were collected using with an X-ray diffractometer (Bruker D8 advance). The system was equipped with LynxEye detector. Samples were scanned from 3 to 40° 2θ, at a step size 0.02° 2θ. The tube voltage and current were 40 KV and 40 mA, respectively.
Slurry studies of the Form A of the hemi-fumarate salt were conducted at room temperature for four days and at 50° C. for one day. About 10 mg to 35 mg of the Form A of the hemi-fumarate salt was slurried in different solvents at RT or 50° C. for one to four days. Solid samples were collected by filtration and analyzed by XRPD (Example 1, XRPD) at a specific time. […] The overlay of XRPD patterns from the slurry study of the Form A of the hemi-fumarate salt of the compound of formula (I) is depicted in FIG. 11.

[2] = Solubility in water and biologically relevant media (SGF, FeSSIF, FaSSIF), HPLC, pH, XRPD; settings: 37° C.; for XRPD of the filter cake: 24 h
Procedure: (§1) HPLC analysis was performed with an Agilent HPLC 1260 series instrument.
The solubility of the Form A of the hemi-fumarate salt was evaluated in water and biologically relevant media, SGF, FeSSIF, and FaSSIF. About 10 mg of the sample was weighed into sample vials and then 2 mL of three bio-relevant media and water were added to each respective sample to make suspensions. All suspensions were shaken at 37° C. with 200 rpm. […] The XRPD pattern from the solubility test of the Form A of the hemi-fumarate salt of the compound of formula (I) is depicted in FIG. 12.

[3] = Physical and chemical stability at 40° C. (75% RH) and 60° C. (XRPD, HPLC); settings: for Physical and chemical stability / XRPD - 29 days / Purity (%) - 29 days: 29 days
Procedure: as §1
Appropriate amount of the Form A of the hemi-fumarate salt was placed at 40° C. (75% RH) and 60° C. for several days. The solids were analyzed by XRPD (Example 1, XRPD) and HPLC (Example 1, HPLC) at appropriate time points. The physical and chemical stabilities of the Form A of the hemi-fumarate salt was conducted at 60° C. and at 40° C. (75% RH) for 29 days. No obvious degradation occurred and no form change was observed under testing conditions. […] (75% RH) for 29 days.

Cc1cc(NC(=O)[C@H](O)c2cc(F)cc(F)c2)ccc1-c1cnc(N)c(C(=O)NC(C)C)c1 [Form A of the hemi-fumarate salt, (R)-2-amino-5-(4-(2-(3,5-difluorophenyl)-2-hydroxyacetamido)-2-methylphenyl)-N-isopropylnicotinamide]
XRPD result after slurry ([1]; Acetone/heptane (1:4), 50° C., 1 day): Form A
XRPD result after slurry ([1]; Acetone/heptane (1:4), room temperature, 4 days): Form A
XRPD result after slurry ([1]; EtOAc, 50° C., 1 day): Form A
XRPD result after slurry ([1]; Heptane, 50° C., 1 day): Form A
XRPD result after slurry ([1]; IPAc, 50° C., 1 day): Form A
XRPD result after slurry ([1]; Isobutanol, 50° C., 1 day): Form A
XRPD result after slurry ([1]; Isobutanol, room temperature, three days (footnote *)): Form A*
XRPD result after slurry ([1]; MTBE, 50° C., 1 day): Form A
XRPD result after slurry ([1]; MTBE, room temperature, 4 days): Form A
XRPD result after slurry ([1]; MeCN, 50° C., 1 day): Form A
XRPD result after slurry ([1]; MeCN, room temperature, 4 days): Form A
XRPD result after slurry ([1]; MeOH/water (1:4), 50° C., 1 day): mixture of the Form B of the hemi-fumarate salt of the compound of formula (I) (Form B) and the free base Form of the compound of formula (I) (FBF)
XRPD result after slurry ([1]; Toluene, 50° C., 1 day): Form A
XRPD result after slurry ([1]; Water, 50° C., 1 day): mixture of the Form B of the hemi-fumarate salt of the compound of formula (I) (Form B) and the free base Form of the compound of formula (I) (FBF)
pH of the filtrate ([2]; FaSSIF, 0.5 hours): 6.39
pH of the filtrate ([2]; FaSSIF, 2 hours): 6.36
XRPD of the filter cake ([2]; FaSSIF): exhibited dissociation into the free base Form
XRPD of the filter cake ([2]; FaSSIF, listed as Form A of the Hemi-Fumarate Salt): Changed
pH of the filtrate ([2]; FaSSIF, 24 hours): 5.57
pH of the filtrate ([2]; FeSSIF, 0.5 hours): 5.14
pH of the filtrate ([2]; FeSSIF, 2 hours): 4.88
XRPD of the filter cake ([2]; FeSSIF): exhibited dissociation into the free base Form
XRPD of the filter cake ([2]; FeSSIF, listed as Form A of the Hemi-Fumarate Salt): Changed
pH of the filtrate ([2]; FeSSIF, 24 hours): 4.71
Solubility comparison between media ([2]; SGF vs FeSSIF, FaSSIF and water): more soluble in SGF than in FeSSIF, FaSSIF, and water
pH of the filtrate ([2]; SGF, 0.5 hours): 1.12
pH of the filtrate ([2]; SGF, 2 hours): 1.10
XRPD of the filter cake ([2]; SGF): No XRPD pattern change was observed
pH of the filtrate ([2]; SGF, 24 hours): 1.36
pH of the filtrate ([2]; Water, 0.5 hours): 3.77
pH of the filtrate ([2]; Water, 2 hours): 2.97
XRPD of the filter cake ([2]; Water): exhibited dissociation into the free base Form
XRPD of the filter cake ([2]; Water, listed as Form A of the Hemi-Fumarate Salt): Changed
pH of the filtrate ([2]; Water, 24 hours): 2.91
solubility at 24 h ([2]; pH 1.36, simulated gastric fluid, thermodynamic from solid, SGF, 24 hours): 4370 µg/mL
solubility at 24 h ([2]; pH 2.91, thermodynamic from solid, Water, 24 hours): 81 µg/mL
solubility at 2 h ([2]; pH 2.97, thermodynamic from solid, Water, 2 hours): 81 µg/mL
solubility at 0.5 h ([2]; pH 3.77, thermodynamic from solid, Water, 0.5 hours): 10 µg/mL
solubility at 24 h ([2]; pH 4.71, thermodynamic from solid, FeSSIF, 24 hours): 41 µg/mL
solubility at 2 h ([2]; pH 4.88, thermodynamic from solid, FeSSIF, 2 hours): 149 µg/mL
solubility at 0.5 h ([2]; pH 5.14, thermodynamic from solid, FeSSIF, 0.5 hours): 214 µg/mL
solubility at 24 h ([2]; pH 5.57, thermodynamic from solid, FaSSIF, 24 hours): 29 µg/mL
solubility at 2 h ([2]; pH 6.36, thermodynamic from solid, FaSSIF, 2 hours): 16 µg/mL
solubility at 0.5 h ([2]; pH 6.39, thermodynamic from solid, FaSSIF, 0.5 hours): 22 µg/mL
solubility at 0.5 h ([2]; simulated gastric fluid, thermodynamic from solid, SGF, 0.5 hours): 4290 µg/mL
solubility at 2 h ([2]; simulated gastric fluid, thermodynamic from solid, SGF, 2 hours): 4230 µg/mL
Purity (%) - 8 days ([3]; 40° C. (75% RH), HPLC): 99.86%
Physical and chemical stability ([3]; 40° C. (75% RH)): physically and chemically stable
XRPD - 29 days ([3]; 40° C. (75% RH)): No Change
Purity (%) - 29 days ([3]; 40° C. (75% RH), HPLC): 99.92%
Purity (%) - 8 days ([3]; 60° C., HPLC): 99.86%
Physical and chemical stability ([3]; 60° C.): physically and chemically stable
XRPD - 29 days ([3]; 60° C.): No Change
Purity (%) - 29 days ([3]; 60° C., HPLC): 99.91%
Purity (%) ([3]; Starting material (before storage), HPLC): 99.87%

Reference: US20260265199A1, “CRYSTALLINE FORMS OF (R)-2-AMINO-5-(4-(2-(3,5-DIFLUOROPHENYL)-2-HYDROXYACETAMIDO)-2-METHYLPHENYL)-N-ISOPROPYLNICOTINAMIDE AND METHODS FOR USING THE SAME” (HIBERCELL, INC., priority 2023, published 2026)
